Results from patent publication US9346832B2, “Gold complexes for use in the treatment of cancer” (University of Kwazulu-Natal, priority 2010, dated 2016).
Where two headings read alike, the source gives them in different places.

How the values were obtained:
[1] = system: 60 human cancer cell lines; details: cited from earlier work; for GI50 / CC50 / IC50: mean over 60 cell lines; for CC50: read-out: LC50, 50% cell death; for IC50: read-out: TGI or IC50, total growth inhibition
[2] = system: 60 human cancer cell lines; experiment: NCI-60 five-dose screen, mean cytotoxicity over 60 human cancer cell lines; format: cell-based
Experimental: The gold(III) complexes of this invention were screened by the National Cancer Institute (NCI, USA) against their panel of 60 different human cancer cell lines. These screens initially entail a one-dose test for the compound at a high concentration (10 μM; e.g. FIGS. 5, 6 and 7). Compounds with a good cytotoxicity profile in the one-dose screen are then subjected to a five-dose screen for the full panel of sixty human cancer cell lines (the so-called 5-dose NCI-60 screen). In the full five-dose screen, the compound concentration is varied in five doses from 10^−8 M to 10^−4 M in order to establish a dose-response function of percentage cell growth versus the concentration of the test agent. […] Similar data will shortly be available for compounds 1.1Y^1b and 1.5Y^1a as these derivatives are in 5-dose screens currently at the NCI.
The mean cytotoxicity data summarized in Scheme 7 were compiled over 60 human cancer cell lines from the NCI database. […] The dose-response curves for the bis(pyrrolide-imine) chelates of the invention are steeper, or harder, than those of all the compounds compared in Scheme 7.

[3] = HepG2 cytotoxicity / cell health parameters; format: cell-based, human; details: human
From the text: (§1) The data for MA_AuPr in Scheme 22 are consistent with a cytotoxic compound capable of inducing apoptosis (programmed cell death) and, indeed, a compound that performs better than the control drug. […] Other cell health parameters which respond are a loss of total cells per well (indicating toxicity due to necrosis, apoptosis or a reduction in cellular proliferation), an increase in nuclear area (indicating necrosis or G2 cell cycle arrest), an increase in cytochrome c release (implying activation of a signalling cascade leading to apoptosis). The latter is particularly relevant as we may rule out cell death by necrosis in the case of MA_AuPr. The mechanism of action of the compound thus leads to cell cycle arrest in the G2 phase and the induction of apoptosis (highly desirable for an anticancer drug). […] Since the compound induces cytochrome c release, cytotoxicity involves apoptosis.

[4] = system: HepG2 human hepatocellular carcinoma cells; experiment: HepG2 cytotoxicity / cell health parameters; format: cell-based; details: human
From the text: as §1

HeLa cells = experiment: HeLa cell cytotoxicity dose-response; format: cell-based
Experimental: FIG. 9 is a graph of the dose-response curves (HeLa cells, pH 7.0, 37° C.) for three macrocyclic Au(III) chelates. IC50 values for the complexes against HeLa cells obtained from the least squares data fits (graph) are given in the 3rd column of the table.
A summary of the average cytotoxicity data over 60 human cancer cell lines for 1.1a-1.1c and comparison with selected commercial and patented cytotoxic agents is shown in Scheme 7. […] The more abrupt the curve, the harder the dose-response function.

calf thymus DNA = experiment: Calf-thymus DNA titration (absorption hypochroism); format: binding
Experimental: FIG. 20 is a graph of the titration of MA_AuPr (1.1a) with calf-thymus DNA in aqueous pH 7 phosphate buffer at 37° C.
The hypochroism of the absorption band of the complex at 383 nm was monitored as a function of added ctDNA. […] Ka is the equilibrium binding constant in M^−1, Ct is the total Au(III) complex concentration, and s is the binding site size.

human cancer cell lines = experiment: Cytotoxicity summary (NCI-60 or independent cytotoxicity screen), Scheme 19; format: cell-based
topoisomerase II = topoisomerase II (Homo sapiens, UniProt P11388); experiment: Topoisomerase II DNA cleavage/relaxation assay, supercoiled plasmid DNA, EB gel (TopoGEN protocol); format: biochemical; details: for action on topoisomerase II: compared with VP-16 (etoposide); for concentration at which topoisomerase II poisoning (DNA cleavage induction) is observed: supercoiled plasmid DNA, linear cleavage products
Sequence of topoisomerase II (P11388 whole entry): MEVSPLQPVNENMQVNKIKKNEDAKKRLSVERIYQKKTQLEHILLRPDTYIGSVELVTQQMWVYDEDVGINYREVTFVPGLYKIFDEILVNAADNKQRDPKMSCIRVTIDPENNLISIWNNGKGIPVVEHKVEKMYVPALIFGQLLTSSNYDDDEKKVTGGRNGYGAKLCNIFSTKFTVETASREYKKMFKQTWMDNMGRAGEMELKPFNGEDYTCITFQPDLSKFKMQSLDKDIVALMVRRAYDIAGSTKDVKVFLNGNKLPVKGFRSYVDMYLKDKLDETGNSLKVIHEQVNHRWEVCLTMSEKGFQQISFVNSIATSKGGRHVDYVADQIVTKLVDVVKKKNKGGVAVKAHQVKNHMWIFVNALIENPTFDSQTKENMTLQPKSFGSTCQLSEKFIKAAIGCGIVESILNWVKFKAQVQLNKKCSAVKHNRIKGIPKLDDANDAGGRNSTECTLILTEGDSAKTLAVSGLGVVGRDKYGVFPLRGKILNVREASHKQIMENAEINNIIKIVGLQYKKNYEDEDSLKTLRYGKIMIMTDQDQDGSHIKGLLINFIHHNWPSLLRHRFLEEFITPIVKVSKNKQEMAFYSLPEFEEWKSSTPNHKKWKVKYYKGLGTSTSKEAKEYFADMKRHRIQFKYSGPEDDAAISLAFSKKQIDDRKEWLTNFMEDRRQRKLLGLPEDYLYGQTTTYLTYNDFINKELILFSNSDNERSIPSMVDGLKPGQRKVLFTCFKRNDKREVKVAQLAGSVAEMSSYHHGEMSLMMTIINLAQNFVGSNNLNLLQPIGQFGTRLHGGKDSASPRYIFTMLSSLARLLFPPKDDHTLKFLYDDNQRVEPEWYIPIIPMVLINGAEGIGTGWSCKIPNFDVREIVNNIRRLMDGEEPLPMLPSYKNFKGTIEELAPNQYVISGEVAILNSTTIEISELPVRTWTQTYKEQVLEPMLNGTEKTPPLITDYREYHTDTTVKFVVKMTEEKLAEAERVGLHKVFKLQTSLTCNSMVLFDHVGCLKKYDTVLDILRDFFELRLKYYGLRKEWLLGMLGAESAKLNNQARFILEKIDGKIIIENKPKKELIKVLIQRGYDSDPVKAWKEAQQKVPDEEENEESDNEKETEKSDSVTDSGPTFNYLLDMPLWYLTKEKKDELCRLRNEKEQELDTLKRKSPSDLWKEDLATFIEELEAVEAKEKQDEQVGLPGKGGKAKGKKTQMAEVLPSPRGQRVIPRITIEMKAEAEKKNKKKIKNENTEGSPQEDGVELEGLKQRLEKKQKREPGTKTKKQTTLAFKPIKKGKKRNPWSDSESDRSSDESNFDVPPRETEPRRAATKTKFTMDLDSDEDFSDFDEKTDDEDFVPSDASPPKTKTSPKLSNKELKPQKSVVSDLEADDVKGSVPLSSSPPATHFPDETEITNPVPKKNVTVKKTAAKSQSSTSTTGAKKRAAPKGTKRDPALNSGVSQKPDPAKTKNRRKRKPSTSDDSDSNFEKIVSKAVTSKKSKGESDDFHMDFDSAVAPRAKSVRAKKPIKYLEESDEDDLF
Experimental: The compound MA_AuPr clearly targets topoisomerase II if the statistical analysis of the NCI data for a range of drugs shown in FIG. 13 is correct. MA_AuPr was therefore assayed for its action against topoisomerase II in vitro using TopoGEN's standard protocol over a wide range of test agent concentrations (0.005 to 500 μM) in order to obtain direct experimental proof for the apparent cellular target of the compound to ensure that a fundamental understanding of the mechanism of action of this new class of Au(III) compounds exists. These experiments were performed by the company TopoGEN and at the University of Central Florida. The DNA cleavage experiments were performed in vitro using purified topoisomerase I and II enzymes and supercoiled plasmid DNA as the substrate. The controls that were used in the experiment were linear marker DNA as well as reactions without the gold(III) complex and high concentrations of VP16. The compound VP16 (etoposide) is a commercially available DNA intercalator chemotherapeutic agent, widely used in the treatment of lung and testicular cancers as well as lymphomas. The choice of VP16 as a control is based on the fact that it is a poor topoisomerase II inhibitor, but is a powerful topoisomerase II poison which arrests the enzyme's cycle at the ternary drug-enzyme-DNA cleavage complex stage, leading to observation of linear DNA fragments upon SDS denaturation of the enzyme (i.e., work-up). Comparison of the VP16 results with the results of MA_AuPr would therefore give a good indication of whether the gold(III) chelate is an inhibitor or a poison.
Lane 1 of the gel (FIG. 14) is the control experiment with only supercoiled plasmid DNA present. The control contains no topoisomerase II and so the DNA supercoiled structure cannot be relaxed, as the topoisomerase II enzyme would usually do. […] At a higher concentration of the test agent (50 μM), both supercoiled plasmid DNA and linear cleavage products are observed. […] At very high concentrations (>500 μM), MA_AuPr behaves exclusively as a catalytic inhibitor of the enzyme.
The role of gold(III) in the efficacy of the compound was determined by modifying the structure of MA_AuPr by replacing the Au(III) cation with Pd(II) to afford MA_PdPr (the isoelectronic square planar coordination complex of known structure and geometry^31) and carrying out the DNA relaxation assay with topoisomerase II as before. The metal-free ligand (MA_H2PrLig) was tested under identical conditions to confirm that the mechanism of action is related to the intact structure of the metal chelate.

Caco-2 transport = details: human
From the text: The Caco-2 data are especially important as many drugs fail due to poor membrane transport/absorption.

[5] = comparison drugs, NCI database, 50% growth inhibition
[6] = MA series: pH 7.0 phosphate buffer at 37° C.

## Cl.Cl.[Cl][Au-]12[n+]3ccccc3-c3cccc([n+]31)-c1cccc[n+]12 [(Au^III(terpy)Cl]Cl2]
[1]; [5]
  GI50: 0.13 µM
[1]; comparison drugs, NCI database
  CC50: 73 µM
  IC50: 11 µM

## CC[C@@]1(O)C(=O)OCc2c1cc1n(c2=O)Cc2cc3ccccc3nc2-1 [Camptothecin]
[2]; on average over the full 60 cell lines
  increase in concentration from 50% growth inhibition to 50% cell kill: 825 fold
[1]; comparison drug
  GI50: 0.04 µM
[1]; [5]
  GI50: 0.04 µM
[1]; comparison drugs, NCI database
  CC50: 33 µM
  IC50: 0.89 µM

## CN(C)CCCN1c2ccccc2Sc2ccc(Cl)cc21 [Chlorpromazine, reference compound]
[3]; Cell Loss AC50
  AC50: 7.8 µM
[3]; Cytochrome C release AC50
  AC50: 16 µM
[3]; DNA structure AC50
  AC50: 196 µM
[3]; Membrane permeability AC50
  AC50: 30 µM
[3]; Mitochondrial mass AC50
  AC50: 5.4 µM
[3]; Mitochondrial membrane potential AC50
  AC50: 50 µM
[3]; Nuclear Area AC50
  AC50: 100 µM
[4]
  Cell Loss MEC: 100 µM
  Cytochrome C release MEC: 11 µM
  DNA structure MEC: 11 µM
  Mitochondrial mass MEC: 3.7 µM
  Mitochondrial membrane potential MEC: 3.7 µM
  Nuclear Area MEC: >11 µM

## C1=[N+]2CCCC[N+]3=Cc4ccc5[n]4[Au-]23[n]2c1ccc2-c1nc2ccccc2nc1-5.F[P-](F)(F)(F)(F)F [KA_AumacroBu, {12,13,14,15-tetrahydro-6,9:18,21-diepimino[1,6]diazacycloctadecino[12,13-b]quinoxalinato}gold(III) hexafluorophosphate(V)]
HeLa cells
  GI50: ~0.1 µM
HeLa cells; pH 7.0, 37° C.
  IC50: 0.37 µM
HeLa cells; read-out: LC50 (the source's name)
  CC50: < 10 µM
Calf thymus DNA; KA series: pH 7.0 15% DMSO-TRIS buffer at 25° C.
  Ka (calf thymus DNA): 1.20(9) × 10^6 M^−1
Human cancer cell lines
  Cytotoxicity: active

## ClC1C[N+]2=Cc3ccc[n]3[Au-]23[n]2cccc2C=[N+]3C1.F[P-](F)(F)(F)(F)F [MA_AuCl, 2,2′-{(2-chloropropane-1,3-diyl)bis[nitrilo(E)methylylidene]}bis(pyrrol-1-ido)gold(III) hexafluorophosphate(V)]
Calf thymus DNA; [6]
  Ka (calf thymus DNA): 3.91(7) × 10^5 M^−1
Human cancer cell lines
  Cytotoxicity: active

## CC1(C)C[N+]2=Cc3ccc[n]3[Au-]23[n]2cccc2C=[N+]3C1.[Cl-] [MA_AuDM, 2,2′{(2,2-dimethylpropane-1,3-diyl)bis[nitrilo(E)methyl-ylidene]}bis(pyrrol-1-ido)gold(III) chloride]
[2]; 60 human cancer cell lines
  fraction of cancer cell lines equivalently or more susceptible than to cisplatin: around 12%
[2]; mean over 60 human cancer cell lines, 50% cell death, read-out: LC50 (the source's name)
  CC50: 72 µM
[2]; mean over 60 human cancer cell lines, 50% growth inhibition
  GI50: 12 µM
[2]; mean over 60 human cancer cell lines, 100% (total) growth inhibition, read-out: TGI or IC50
  TGI (concentration for total growth inhibition): 31 µM
[2]; plot of −log(GI50/M) versus cisplatin, FIG. 10
  growth inhibition activity relative to cisplatin, on average: 91%
Calf thymus DNA; [6]
  Ka (calf thymus DNA): 1.63(3) × 10^5 M^−1
Human cancer cell lines
  Cytotoxicity: active

## CCOC1C[N+]2=Cc3ccc[n]3[Au-]23[n]2cccc2C=[N+]3C1.F[P-](F)(F)(F)(F)F [MA_AuOEt, 2,2{(2-ethoxypropane-1,3-diyl)bis[nitrilo(E)methylylidene]}bis(pyrrol-1-ido)gold(III) hexafluorophosphate(V)]
Calf thymus DNA; [6]
  Ka (calf thymus DNA): 1.01(4) × 10^6 M^−1
Human cancer cell lines
  Cytotoxicity: active

## C(=NCCCN=Cc1ccc[nH]1)c1ccc[nH]1 [MA_H2PrLig]
Topoisomerase II
  action on topoisomerase II: inactivity
  concentration at which topoisomerase II poisoning (DNA cleavage induction) is observed: 500 µM

## C(=NCCCN=Cc1ccc[n-]1)c1ccc[n-]1.[Pd+2] [MA_PdPr]
Topoisomerase II; DNA-cleavage induction in presence of topoisomerase II
  weaker effect than the gold(III) complex: 100 fold
Topoisomerase II
  action on topoisomerase II: diminished activity
  concentration at which topoisomerase II poisoning (DNA cleavage induction) is observed: 50 µM

## CO[C@@]12[C@H](COC(N)=O)C3=C(C(=O)C(C)=C(N)C3=O)N1C[C@@H]1N[C@@H]12 [Mitomycin]
[1]; [5]
  GI50: 0.71 µM
[1]; comparison drugs, NCI database
  IC50: 6.5 µM

## CNC(=C[N+](=O)[O-])NCCSCc1ccc(CN(C)C)o1 [Ranitidine]
Caco-2 transport
  Papp A→B at 2 h, 10 µM: 0.7 ×10⁻⁶ cm/s
  Papp B→A at 2 h, 10 µM: 2.3 ×10⁻⁶ cm/s
  efflux ratio at 2 h, 10 µM: 3.3

## CC(=O)CC(c1ccccc1)c1c(O)c2ccccc2oc1=O (stereo not drawn) [Warfarin]
Caco-2 transport; Caco-2
  Papp A→B at 2 h, 10 µM: 37 ×10⁻⁶ cm/s
  Papp B→A at 2 h, 10 µM: 8 ×10⁻⁶ cm/s
  efflux ratio at 2 h, 10 µM: 0.2

## O=NN(CCCl)C(=O)NCCCl [carmustine]
[1]; selected human cancer cell lines, data not shown
  mean −log(GI50): 4.20
